# Values joined by “and” are separate entries in the source; they are usually repeats but may differ in a detail not shown here. Identical values can stand only once.
# Molecular target: T1, Muscarinic acetylcholine receptor M2 (Rattus norvegicus, UniProt P10980)
# T1 sequence (P10980 whole entry): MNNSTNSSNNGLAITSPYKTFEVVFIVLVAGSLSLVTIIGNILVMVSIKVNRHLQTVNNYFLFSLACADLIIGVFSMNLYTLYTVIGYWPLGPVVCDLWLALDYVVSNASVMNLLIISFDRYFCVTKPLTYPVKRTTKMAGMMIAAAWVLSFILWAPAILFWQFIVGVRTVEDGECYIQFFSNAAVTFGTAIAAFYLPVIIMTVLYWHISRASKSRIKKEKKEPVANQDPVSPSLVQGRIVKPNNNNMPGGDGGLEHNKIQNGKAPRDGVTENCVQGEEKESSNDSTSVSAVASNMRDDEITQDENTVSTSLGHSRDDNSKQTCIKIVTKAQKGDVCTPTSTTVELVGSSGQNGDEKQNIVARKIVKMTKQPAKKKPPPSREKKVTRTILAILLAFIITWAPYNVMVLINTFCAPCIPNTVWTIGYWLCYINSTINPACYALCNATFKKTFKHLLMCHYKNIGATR
# Test: Affinity for rat Muscarinic acetylcholine receptor M2
row,SMILES,Ki
1,Cc1ccc(O)c(C(CCN2C[C@H]3C[C@H]3C2C)c2ccccc2)c1 (stereo not given in full),34 nM and 42 nM
2,Cc1ccc(OCc2ccccc2)c(C(CCN2C[C@@]3(C)C[C@@]3(C)C2)c2ccccc2)c1 (stereo not given in full),> 10000 nM
3,Cc1ccc(O)c(C(CCN2C[C@H]3C[C@@]3(C)C2)c2ccccc2)c1 (stereo not given in full),221 nM
4,O=C(NCC#CCN1CC2CC2C1)C(O)(c1ccc(F)cc1)c1ccc(F)cc1 (stereo not given),736 nM
5,O=C(NCC#CCN1CC2CC2C1)C(O)(c1ccccc1)c1ccccc1 (stereo not given),639 nM
6,Cc1ccc(OCc2ccccc2)c(C(CCN2C[C@H]3C[C@H]3C2)c2ccccc2)c1 (stereo not given in full),> 10000 nM
7,Cc1ccc(OCc2ccccc2)c(C(CCN2C[C@H]3C[C@H]3C2C)c2ccccc2)c1 (stereo not given in full),> 10000 nM
8,Cc1ccc(O)c(C(CCN2C[C@@]3(C)C[C@@]3(C)C2)c2ccccc2)c1 (stereo not given in full),> 1000 nM
9,O=C(NCC#CCN1CC2CC2C1)C(O)(c1ccccc1)C1CCCCC1 (stereo not given),3580 nM
10,"Cc1ccc(O)c(C(CCN2CC3C[C@@H]3C2)c2ccccc2)c1 (single isomer, unassigned)",105 nM
